Results on ten compounds are retold here after patent publication US20140051679A1, “KINASE INHIBITORS AND METHOD OF TREATING CANCER WITH SAME” (UNIVERISTY HEALTH NETWORKS, priority 2011, published 2014).

Assay [1] concerns the target T1, human TTK (Homo sapiens, UniProt P33981).
T1 construct: amino terminal GST fusion of full length human TTK; purchased Invitrogen
T1 sequence (P33981 1-857): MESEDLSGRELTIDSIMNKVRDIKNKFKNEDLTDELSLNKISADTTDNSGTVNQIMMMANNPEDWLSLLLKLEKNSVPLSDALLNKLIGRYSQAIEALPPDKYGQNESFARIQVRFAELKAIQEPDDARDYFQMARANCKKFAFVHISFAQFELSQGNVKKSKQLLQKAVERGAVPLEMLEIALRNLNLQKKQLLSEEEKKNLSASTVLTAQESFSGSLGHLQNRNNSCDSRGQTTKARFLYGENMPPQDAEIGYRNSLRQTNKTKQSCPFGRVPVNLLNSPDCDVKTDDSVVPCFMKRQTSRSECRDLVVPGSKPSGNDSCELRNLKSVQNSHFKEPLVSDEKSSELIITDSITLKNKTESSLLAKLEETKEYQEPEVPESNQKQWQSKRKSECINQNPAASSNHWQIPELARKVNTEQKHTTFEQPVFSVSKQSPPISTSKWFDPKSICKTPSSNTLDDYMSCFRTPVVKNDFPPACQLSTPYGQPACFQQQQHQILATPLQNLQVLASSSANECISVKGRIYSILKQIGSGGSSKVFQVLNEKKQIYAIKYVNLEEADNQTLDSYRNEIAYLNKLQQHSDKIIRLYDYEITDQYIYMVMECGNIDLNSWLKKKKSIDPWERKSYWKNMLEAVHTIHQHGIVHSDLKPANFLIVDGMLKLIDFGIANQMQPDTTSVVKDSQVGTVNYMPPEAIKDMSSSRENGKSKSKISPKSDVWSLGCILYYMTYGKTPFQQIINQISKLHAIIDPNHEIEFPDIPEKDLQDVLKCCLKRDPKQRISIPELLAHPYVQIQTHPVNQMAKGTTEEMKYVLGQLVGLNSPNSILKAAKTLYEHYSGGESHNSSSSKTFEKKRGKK
The assay can be described thus: TTK inhibition assay (indirect ELISA). Type of assay: biochemical. The conditions noted are these: GST-TTK 0.68 nM, 16 μM ATP; read-out: IC50 Ranges TTK.

In assay [2] the target is T2, human PLK4 (Homo sapiens, UniProt O00444).
T2 construct: amino terminal GST fusion of residues 1-391 of human PLK4; made in house; host or cells: E. coli
T2 sequence (O00444 1-391): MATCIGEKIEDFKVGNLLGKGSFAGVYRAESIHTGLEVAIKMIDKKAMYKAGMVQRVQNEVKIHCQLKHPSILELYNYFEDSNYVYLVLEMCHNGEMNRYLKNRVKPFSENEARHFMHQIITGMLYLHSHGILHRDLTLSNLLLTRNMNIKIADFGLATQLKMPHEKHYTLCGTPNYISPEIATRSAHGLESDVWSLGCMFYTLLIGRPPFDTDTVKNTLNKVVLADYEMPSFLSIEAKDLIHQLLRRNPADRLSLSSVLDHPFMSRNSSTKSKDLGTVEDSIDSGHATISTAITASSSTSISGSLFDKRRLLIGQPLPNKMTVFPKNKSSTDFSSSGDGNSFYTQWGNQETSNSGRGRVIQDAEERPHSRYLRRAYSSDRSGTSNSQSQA
The assay can be described thus: PLK4 inhibition assay (indirect ELISA). The conditions noted are these: GST-PLK4 4 nM, 15 μM ATP; read-out: IC50 Ranges PLK4. The class given is biochemical. Summed up: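 Compounds were tested either at a single 10 μM dose or across 10-point titrations (typically 0.5 to 0.001 μM), preincubated 15 min with 4 nM GST-PLK4 (human 1-391, dephosphorylated) before 15 μM ATP was added. MBP substrate phosphorylation over 30 min, pH 7.5 HEPES/MgCl2 buffer, read by HRP/TMB ELISA (450 nm). % inhibition vs. high-activity control; IC50 by logistic fit.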
For orientation: ELISA stands for enzyme-linked immunosorbent assay.

In assay [3] the target is T3, Aurora B (Homo sapiens, UniProt Q96GD4).
T3 construct: purchased Invitrogen PV3970
T3 sequence (Q96GD4 whole entry): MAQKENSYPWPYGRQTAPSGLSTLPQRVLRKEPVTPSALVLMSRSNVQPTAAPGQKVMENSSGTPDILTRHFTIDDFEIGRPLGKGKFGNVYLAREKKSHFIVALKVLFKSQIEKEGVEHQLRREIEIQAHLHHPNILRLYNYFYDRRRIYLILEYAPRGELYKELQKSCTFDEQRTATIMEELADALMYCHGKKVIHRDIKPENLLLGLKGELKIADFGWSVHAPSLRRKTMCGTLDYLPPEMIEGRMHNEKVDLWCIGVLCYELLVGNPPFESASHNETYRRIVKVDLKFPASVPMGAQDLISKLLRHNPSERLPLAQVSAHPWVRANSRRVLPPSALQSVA
Put plainly: Aurora B inhibition assay (Z-Lyte). The class given is biochemical. To be noted: 28 nM Aurora B, 128 μM ATP; read-out: IC50 Ranges Aurora B. The protocol: Aurora B inhibition was determined using the Z-Lyte assay kit from Invitrogen. The assay was performed using the recommended manufacturer's instructions with 128 μM ATP and 28 nM Aurora B (Invitrogen cat #PV3970). The % inhibition values were determined according to the manufacturer's directions and IC50 values were obtained using a non-linear 4 point logistic curve fit (XLfit4, IDBS)

Assay [4] relates to MDA-MB-231 breast cancer cells. Put plainly: Cell growth inhibition, Sulforhodamine B assay, MDA-MB-231. Type of assay: cell-based. The conditions noted are these: Homo sapiens, 120 h, 5 days culture, SRB assay, read-out: Cell Line GI50 Range MDA-MB-231.
Assay [5] deals with MDA-MB-468 breast cancer cells. The assay can be described thus: Cell growth inhibition, Sulforhodamine B assay, MDA-MB-468. The conditions noted are these: Homo sapiens, 120 h, 5 days culture, SRB assay, read-out: Cell Line GI50 Range MDA-MB-468. The class given is cell-based. (Sulforhodamine B stains cellular protein and so reports cell mass.)
Assay [6] has as its system HCT116 colon cancer cells. The assay can be described thus: Cell growth inhibition, Sulforhodamine B assay, HCT116. The class given is cell-based. To be noted: Homo sapiens, HCT-116, 120 h, 5 days culture, SRB assay, read-out: Cell Line GI50 Range HCT116.
In assay [7] the test system is HT29 colon cancer cells. Put plainly: Cell growth inhibition, Sulforhodamine B assay, HT29. The class given is cell-based. The conditions noted are these: Homo sapiens, HT-29, 120 h, 5 days culture, SRB assay, read-out: Cell Line GI50 Range HT29.
For assay [8], the system named is PA-1 ovarian cancer cells. Put plainly: Cell growth inhibition, Sulforhodamine B assay, PA-1. Type of assay: cell-based. To be noted: 120 h, 5 days culture, SRB assay, read-out: Cell Line GI50 Range PA-1.
Assay [9] has as its system OVCAR-3 ovarian cancer cells. The assay can be described thus: Cell growth inhibition, Sulforhodamine B assay, OVCAR-3. The class given is cell-based. To be noted: Homo sapiens, 120 h, 5 days culture, SRB assay, read-out: Cell Line GI50 Range OVCAR-3.

One may read the IC50 as the concentration that gives 50% inhibition. The GI50 is the concentration that inhibits growth by half. `CN1CCC(Oc2ccc(-c3n[nH]c4ccc(NC(=O)C(c5ccccc5)C5CCCC5)cc34)cc2)CC1` (stereo not drawn) [Example A148, 2-cyclopentyl-N-(3-(4-((1-methylpiperidin-4-yl)oxy)phenyl)-1H-indazol-5-yl)-2-phenylacetamide]: the IC50 in assay [1], in assay [2] and in [3] was at most 5 µM each time. Besides, the concentration for 50% growth inhibition (GI50) in [4], in assay [5], in assay [6], in [7], in [8] and in assay [9] was at most 5 µM throughout.
`Cc1ccccc1CC(=O)Nc1ccc2[nH]nc(-c3ccc(OC4CCN(C)CC4)cc3)c2c1` [Example A92, N-(3-(4-(1-Methylpiperidin-4-yloxy)phenyl)-1H-indazol-5-yl)-2-o-tolylacetamide]: the half-maximal inhibitory concentration (IC50) in assay [1], in assay [2] and in assay [3] was at most 5 µM throughout. The GI50 in [4], in assay [5], in assay [6], in [7], in [8] and in [9] was at most 5 µM each time.
For the compound `CCC(NC(=O)c1ccc2[nH]nc(-c3ccc(OC4CCN(CCOC)CC4)cc3)c2c1)c1ccccc1` (stereo not drawn) [Example A153, 3-(4-((1-(2-methoxyethyl)piperidin-4-yl)oxy)phenyl)-N-(1-phenylpropyl)-1H-indazole-5-carboxamide], the IC50 in [1], in assay [2] and in [3] was at most 5 µM in each case. The GI50 in assay [4], in [5], in assay [6], in assay [7], in assay [8] and in [9] was at most 5 µM each time.
Regarding `CN1CCC(Oc2ccc(-c3n[nH]c4ccc(NC(=O)C(c5ccsc5)N5CCCC5)cc34)cc2N(C)C)CC1` (stereo not drawn) [Example A113, N-(3-(3-(dimethylamino)-4-((1-methylpiperidin-4-yl)oxy)phenyl)-1H-indazol-5-yl)-2-(pyrrolidin-1-yl)-2-(thiophen-3-yl)acetamide], the IC50 in assay [1], in assay [2] and in assay [3] was at most 5 µM in each case. The GI50 in assay [4], in assay [5], in assay [6], in assay [7], in [8] and in assay [9] was at most 5 µM throughout.
As for `CN1CCC(Oc2cccc(-c3n[nH]c4ccc(NC(=O)C(c5ccsc5)N5CCCC5)cc34)c2)CC1` (stereo not drawn) [Example A99, N-(3-(3-((1-methylpiperidin-4-yl)oxy)phenyl)-1H-indazol-5-yl)-2-(pyrrolidin-1-yl)-2-(thiophen-3-yl)acetamide], the IC50 in [1], in assay [2] and in assay [3] was at most 5 µM throughout. Besides, the GI50 in assay [4], in assay [5], in [6], in assay [7], in assay [8] and in [9] was at most 5 µM each time.
As for `Cc1ccccc1C(NC(=O)c1ccc2[nH]nc(-c3ccc(OC4CCN(C)CC4)cc3)c2c1)C(C)C` (stereo not drawn) [Example A143, N-(2-methyl-1-(o-tolyl)propyl)-3-(4-((1-methylpiperidin-4-yl)oxy)phenyl)-1H-indazole-5-carboxamide], the concentration for half-maximal inhibition (IC50) in assay [1], in [2] and in assay [3] was at most 5 µM each time. Moreover, the GI50 in assay [4], in assay [5], in [6], in assay [7], in [8] and in [9] was at most 5 µM in each case.
In the case of `COCCN1CCC(Oc2ccc(-c3n[nH]c4ccc(C(=O)NC(c5ccccc5)C5CCCC5)cc34)cc2)CC1` (stereo not drawn) [Example A161, N-(cyclopentyl(phenyl)methyl)-3-(4-((1-(2-methoxyethyl)piperidin-4-yl)oxy)phenyl)-1H-indazole-5-carboxamide], the IC50 in [1], in assay [2] and in [3] was at most 5 µM throughout. For the same compound, the 50% growth inhibitory concentration (GI50) in [4], in assay [5], in assay [6], in assay [7], in [8] and in [9] was at most 5 µM in each case.
As for `CN1CCN(C)c2ccc(-c3n[nH]c4ccc(NC(=O)C(c5ccsc5)N5CCCC5)cc34)cc2C1` (stereo not drawn) [Example A93, N-(3-(1,4-dimethyl-2,3,4,5-tetrahydro-1H-benzo[e][1,4]diazepin-7-yl)-1H-indazol-5-yl)-2-(pyrrolidin-1-yl)-2-(thiophen-3-yl)acetamide], the half-maximal inhibitory concentration (IC50) in assay [1], in assay [2] and in [3] was at most 5 µM throughout. For the same compound, the GI50 in assay [4] was at most 5 µM; in assay [5] it was at most 5 µM; in [6], at most 5 µM; in [7], at most 5 µM; in assay [8], at most 5 µM; in assay [9], 5 to 20 µM.
Turning to `O=C(NC(c1ccccc1)C1CC1)c1ccc2[nH]nc(-c3ccc(OC4CCN(CCO)CC4)cc3)c2c1` (stereo not drawn) [Example A104, N-(cyclopropyl(phenyl)methyl)-3-(4-((1-(2-hydroxyethyl)piperidin-4-yl)oxy)phenyl)-1H-indazole-5-carboxamide], the IC50 in [1], in assay [2] and in assay [3] was at most 5 µM in each case. Further, the GI50 in assay [4], in [5], in assay [6], in assay [7], in [8] and in assay [9] was at most 5 µM throughout.
As for `CN1CCC(Oc2ccc(-c3n[nH]c4ccc(C(=O)NC(c5ccccc5)C5CCCC5)cc34)cc2)CC1` (stereo not drawn) [Example A159, N-(cyclopentyl(phenyl)methyl)-3-(4-((1-methylpiperidin-4-yl)oxy)phenyl)-1H-indazole-5-carboxamide], the 50% inhibitory concentration (IC50) in assay [1], in assay [2] and in assay [3] was at most 5 µM each time. Further, the 50% growth inhibitory concentration (GI50) in assay [4], in assay [5], in assay [6], in [7], in assay [8] and in assay [9] was at most 5 µM throughout.
